What was measured:
[1] = tested on: EMT mechanism-related factors in A549 cells; experiment: Western blot of EMT mechanism-related factors; type: cell-based; conditions: BCT 10 μM, BCC 0.5 μM; for expression of E-cadherin: decreased by TGF-β1 treatment; for expression of E-cadherin / expression of Cyr61 / expression of Fibronectin / expression of Integrin β3 / expression of SMA2/3 / expression of Vimentin / expression of α-Sma: FIG. 4; for expression of Cyr61 / expression of Fibronectin / expression of Integrin β3 / expression of SMA2/3 / expression of Vimentin / expression of α-Sma / expression of pAKT / expression of pERK: increased by TGF-β1 treatment; for expression of pAKT / expression of pERK: FIG. 5
Procedure: 2×10^6 A549 cells were attached to a 100 mm culture vessel for 24 hours, treated with TGF-β1, TGF-β1 and sample BCT (10 μM) and/or TGF-β1 and sample BCC (0.5 μM)) and cultured. After collecting all of the cultured cells, the cell precipitate was dissolved in a cell lysate RIPA lysis buffer (LPS solution, Korea, Seoul), followed by centrifugation at 13,000 rpm for 20 minutes to obtain a supernatant. The total amount of protein was quantified using the BCA Protein assay kit (Thermo. Scientific, Wilmington, DE, USA) solution. After mixing the protein and 6× sample buffer (1 mL of glycerol, 0.5 mL of β- Mercaptoethanol, 3 mL of 10% SDS, 1.25 mL of 1 M Tris-HCl, 1-2 μg of bromophenol blue), electrophoresis was performed on SDS polyacrylamide gel. After transferring to Nitrocellulose Membrane (Millipore, Billerica, MA, USA) and blocking with 5% non-fat skim milk, protein expression levels of related factors were measured using various antibodies, and whether the protein amount was the same was confirmed using actin. Each of the primary antibodies was diluted and reacted at room temperature for 4 hours, washed 3 times with TBST, the secondary antibody was diluted at 1:5,000 and reacted at room temperature for 30 minutes. After washing with TBST, a band was obtained after light emission with ECL solution (LPS solution, Korea, Seoul). The results are shown in FIG. 4 for the Smad-dependent factor and FIG. 5 for the Smad-independent factor.

[2] = tested on: alveolar epithelial A549 cells; experiment: Cell penetration inhibition (Matrigel trans-well), EMT induced by TGF-β1; type: cell-based; conditions: TGF-β1-treated A549; BCT 10 μM, BCC 0.5 μM; 24 hours; FIG. 3
Procedure: As EMT progresses, the proliferation and movement of epithelial cells increases, cell penetration increases, and cell morphology changes, thereby confirming EMT inhibitory efficacy and evaluating the degree of expression of mechanism-related factors.
Trans-well inserts (Corning, USA) were coated with Matrigel® (Corning) at 2 mg/L. Dilute A549 cells to about 5×10^5/mL in 200 μl of serum-free media, and TGF-β1, TGF-β1 and sample BCT (10 μM) or TGF-β1 and sample BCC (0.5 μM) was added and dispensed into trans-well inserts. The cells were cultured for 24 hours by dispensing a medium containing 10% serum in the receive chambers. After the culture was completed, the cells remaining in the insert were removed, and the cells penetrating the receiving chamber were stained with crystal violet and photographed under a microscope.

[3] = tested on: alveolar epithelial A549 cells; experiment: Cell migration inhibition (scratch), EMT induced by TGF-β1; type: cell-based; conditions: TGF-β1-treated A549; BCT 10 μM, BCC 0.5 μM; 72 hours; FIG. 2
Procedure: As EMT progresses, the proliferation and movement of epithelial cells increases, cell penetration increases, and cell morphology changes, thereby confirming EMT inhibitory efficacy and evaluating the degree of expression of mechanism-related factors. A549 cells were seeded at 1×10^5 cells in 1 mL per well in a 6-well plate and cultured at 37° C. under 5% CO 2 for 24 hours. After 24 hours, a single cell layer was scratched with a 1 mL tip and a medium containing TGF-β1, TGF-β1, and sample BCT (10 μM) or TGF-β1, and sample BCC (0.5 μM) was added to each well. After culturing for 72 hours, the degree of cell migration was confirmed under a microscope, and images were taken.

cells in BALF = experiment: Change in cell number in bronchoalveolar lavage fluid (BALF), pulmonary fibrosis animal model; type: in vivo, mice; conditions: increased in BLM-administered group; FIG. 10
Procedure: (§1) The airways of the mice were incised, and bleomycin (3 mg/kg, BLM) was injected into the airways. After injection, the incision site was sutured with nylon thread, samples of BCT and/or BCC were administered daily 24 hours after bleomycin was injected. Mice were raised to 28 days from the start date of the experiment and sacrificed on day 29 to separate the broncho-alveolar lavage fluid (BALF) and lung tissue and used in further experiments.
Pulmonary fibrosis is characterized by an increase in the total number of cells and the percentage of neutrophils in the BALF fluid.
After collecting BALF from each experimental animal group, neutrophils and alveolar macrophages, including total cells, were measured. The method of measuring the total number of cells in BALF, the ratio of neutrophils and alveolar macrophages, etc., is as follows. BALF was mixed with trypan blue in a ratio of 1:1, and then the total number of cells was counted as ×104/BALF 1 mL using a hemocytometer (Fisher Scientific, PA, USA). The prepared BALF was spread on a slide glass and then stained with Diff Quik (manufactured by Sysmex Corporation, USA), the number of neutrophils and alveolar macrophages among a total of 200 cells was counted under a microscope, and the ratio was measured and recorded.

[4] = tested on: human fibroblasts (HDF, Human Dermal Fibroblast); experiment: MTT cytotoxicity assessment; type: cell-based; conditions: 24 hours and 48 hours, FIG. 1
Procedure: (§2) Using the MTT (3-(4,5-dimethylthiazol-2yl)-2,5-diphenyl-2H-tetrazolium bromide) assay was applied to investigate the effect of TMF (BCT) and catechol (BCC) on cell proliferation. 5×10^3 cells/well were placed in a 96-well plate and incubated for 24 hours at 37° C., 5% CO2 incubator. Then, each sample was treated in each well according to the concentration and then incubated for 24 hours. Then, after washing with PBS, 20 μL of MTT dissolved in PBS and 200 μL of FBS-free DMEM were treated in each well and then incubated for 4 hours under the same conditions after blocking the light. After 4 hours, the culture solution was removed, treated with 200 μL of DMSO (dimethyl sulfoxide), and left at 37° C. for 2 hours, and absorbance was measured at 570 nm using a microplate reader.
(§3) The cell viability after 24 hours and 48 hours is shown in FIG. 1 as a percentage compared to the control group, the untreated sample group.

muscle cells (C2C12) = experiment: MTT cytotoxicity assessment; type: cell-based; conditions: 24 hours and 48 hours, FIG. 1
Procedure: as §2, §3

[5] = tested on: human lung fetal cells (MRC-5); experiment: MTT cytotoxicity assessment; type: cell-based; conditions: 24 hours and 48 hours, FIG. 1
Procedure: as §2, §3

[6] = tested on: major markers of pulmonary fibrosis in lung tissue; experiment: Western blot of protein expression level using lung tissue, pulmonary fibrosis animal model; type: in vivo, mice; conditions: compared to BLM-induced group; FIG. 9
Procedure: as §1
Animal models of each control group and the experimental group raised for 28 days were sacrificed, and lung tissue samples and serum samples were obtained from these animal models, respectively, and stored in a deep freezer at −70° C. Western blotting was performed for α-Sma, TGF-β1, Fibronectin, and E-cadherin proteins known as major markers of pulmonary fibrosis.
Lung tissue was put into T-PER buffer (lysis buffer, Thermo. Scientific, Wilmington, DE, USA) as a standard of 500 μL per 50 mg of tissue, and the tissue was homogenized using a homogenizer. The homogenized tissue was centrifuged at 13,000 rpm, and the supernatant was used as a sample for Western blot. The concentration of the tissue homogenate was quantified using a BCA Protein assay kit (Thermo. Scientific, Wilmington, DE, USA) solution. After mixing the protein and 6× sample buffer (1 mL of glycerol, 0.5 mL of β-Mercaptoethanol, 3 mL of 10% SDS, 1.25 mL of 1 M Tris-HCl, 1-2 μg of bromophenol blue), electrophoresis was performed on SDS polyacrylamide gel. After transferring to Nitrocellulose Membrane (Millipore, Billerica, MA, USA) and blocking with 5% non-fat skim milk, protein expression levels of related factors were measured using various antibodies, and whether the protein amount was the same was confirmed using actin. Each of the primary antibodies was diluted and reacted at room temperature for 4 hours, washed 3 times with TBST, the secondary antibody was diluted at 1:5,000 and reacted at room temperature for 30 minutes. After washing with TBST, a band was obtained after light emission with ECL solution (LPS solution, Korea, Seoul).

[7] = tested on: alveolar epithelial A549 cells; experiment: Cell morphological changes, EMT induced by TGF-β1; type: cell-based; conditions: changed by TGF-β1 treatment, BCT 10 μM, BCC 0.5 μM, 48 hours, FIG. 6
Procedure: A549 cells were seeded on a 60 mm plate at 1×10^5 /mL and cultured for 24 hours. Then, 5 mL of a medium containing TGF-β1, TGF-β1 and sample BCT (10 μM) and/or TGF-β1 and sample BCC (0.5 μM) was added to each well and incubated for another 48 hours. After culturing, the cells were checked under a microscope, and images were taken.

lung fibrosis = experiment: Histopathological examination in bleomycin pulmonary fibrosis animal model; type: in vivo, mice; conditions: BLM 3 mg/kg into airways, samples administered daily; for size of the fibrosis area according to the tissue scoring system (Ashcroft score): Masson's trichrome, graph at bottom of FIG. 8; for size of the increased fibrosis area (H&E staining): lung on day 29, FIG. 8
Procedure: The airways of the mice were incised, and bleomycin (3 mg/kg, BLM) was injected into the airways. After injection, the incision site was sutured with nylon thread, samples of BCT and/or BCC were administered daily 24 hours after bleomycin was injected. Mice were raised to 28 days from the start date of the experiment and sacrificed on day 29 to separate the broncho-alveolar lavage fluid (BALF) and lung tissue and used in further experiments. In order to evaluate lung fibrosis, animal models of each control group and experimental group were sacrificed, and the lungs were extracted from these animal models, fixed in 10% neutral buffered formalin (NBF), and then embedded with paraffin to produce tissue sections with a thickness of 2-4 um. After the sections were prepared, Hematoxylin-Eosin staining and Masson's trichrome staining were performed for comparison of histological findings and observed with an optical microscope. H&E staining was performed to evaluate inflammation and epithelial cell hypertrophy due to lung fibrosis, and Masson's trichrome staining was used to evaluate fibrosis using the following tissue scoring method (Scoring system, Ashcroft score). [table]

Structure (SMILES) | expression of E-cadherin [1] | expression of Cyr61 [1] | expression of Fibronectin [1] | expression of Integrin β3 [1] | expression of SMA2/3 [1] | expression of Vimentin [1] | expression of α-Sma [1] | expression of pAKT [1] | expression of pERK [1] | number of cells penetrating into the receiving chamber [2] | cell migration [3] | number of lymphocytes in BALF (cells in BALF) | number of neutrophils in BALF (cells in BALF) | total number of cells in BALF (cells in BALF) | cytotoxicity (cell viability) [4] | cytotoxicity (cell viability) (muscle cells (C2C12)) | cytotoxicity (cell viability) [5] | E-cadherin expression in lung tissue [6] | expression level of TGF-β1 in lung tissue [6] | expression level of fibronectin in lung tissue [6] | other results
Oc1ccccc1O [BCC, 1,2-dihydroxybenzene] | increased | decreased | decreased | decreased | decreased | decreased | decreased | decreased | decreased | decreased | decreased | significantly decreased | significantly decreased | significantly decreased | did not show any particular cytotoxicity | did not show any particular cytotoxicity | did not show any particular cytotoxicity | increased | decreased | decreased | expression level of α-SMA in lung tissue [6]: decreased; cell morphology [7]: recovered similarly to the control; size of the fibrosis area according to the tissue scoring system (Ashcroft score) (lung fibrosis): reduced; size of the increased fibrosis area (H&E staining) (lung fibrosis): reduced
COc1ccc(-c2coc3cc(OC)c(OC)cc3c2=O)cc1 [BCT, 4′,6,7-trimethoxyisoflavone] | increased | decreased | decreased | decreased | decreased | decreased | decreased | decreased | decreased | decreased | decreased | significantly decreased | significantly decreased | significantly decreased | did not show any particular cytotoxicity | did not show any particular cytotoxicity | did not show any particular cytotoxicity | increased | decreased | decreased | expression level of α-SMA in lung tissue [6]: decreased; cell morphology [7]: recovered similarly to the control; size of the fibrosis area according to the tissue scoring system (Ashcroft score) (lung fibrosis): reduced; size of the increased fibrosis area (H&E staining) (lung fibrosis): reduced
